Measurements: patent US20030144237A1, “Use of inhibition of a gas6 function or of a gas6 receptor for preventing and treating a cardiovascular disease” (priority 2000, published 2003)

Key:
[1] = tested on: platelets from Gas6−/− mice; test: Platelet aggregation (turbidimetric, Chronolog aggregometer), Gas6−/− platelets; format: cell-based; conditions: for platelet aggregation in response to PMA, A23187 or thrombin: FIG. 2, thrombin with washed platelets; for irreversible platelet aggregation at higher agonist concentrations: ADP 50 μM, collagen 5-15 μg/ml, U46619 100 μM; for irreversible platelet aggregation at low agonist concentrations: ADP <10 μM, collagen 2 μg/ml, U46619 10 μM, only shape change
Procedure: (§1) Blood was centrifuged at 100 g for 10 minutes, allowing separation of platelet-rich plasma (PRP). Platelet-poor plasma (PPP) was obtained by centrifugation of the remaining blood at 2,000 g for 10 minutes. PRP and PPP were pooled from four Gas6^−/− or Gas6^+/+ mice. Platelet aggregation was measured turbidimetrically in an optical Chronolog aggregometer (model 490, Coulter Electronics Ltd), using 280 μl PRP, adjusted to a concentration of 250,000 platelets/μl with PPP as a diluent. PPP also served as 100% reference for aggregation. Aggregation in response to collagen (equine collagen from Hormon Chemie), ADP or the thromboxane A2 mimetic U46619 was studied.
(§2) Aggregation in response to thrombin was performed with washed platelets. […] Apyrase was added to PRP at a final concentration of 1 u/ml. Platelets were then washed by adding 2 volumes ACD and pelleted by centrifugation at 2,000 g for 10 minutes. Platelet pellet was resuspended in Tyrode's buffer containing 1% BSA and final platelet suspension was adjusted to 200,000 platelets/μl and kept at 37° C. Platelet aggregation was measured with an optical Chronolog aggregometer as described above.

[2] = tested on: Gas6−/− platelets; test: Platelet ATP release (dense granule secretion), Lumi-aggregometer, Gas6−/− platelets; format: cell-based, mice; set-up: unit not given here; conditions: mean±SEM of three experiments
Procedure: (§3) Platelet aggregation and, ATP secretion were measured in an optical Chronolog Lumi-aggregometer (Coulter Electronics Ltd), using 280 μl PRP, adjusted to a concentration of 250,000 platelets/μl with PPP as a diluent. Platelet aggregation was measured as described in example 4. Platelet ATP release was monitored by adding firely luciferase and luciferin to all samples and comparing luminescence created by platelet ATP release to that generated by addition of an ATP standard (Chrono-Lume, Kordia). Aggregation and ATP release in response to collagen (equine collagen from Hormon Chemie), ADP, or the thromboxane A2 mimetic U46619 were studied. Platelet aggregation and ATP secretion in response to thrombin were performed with washed platelets in an optical Chronolog Lumi-aggregometer as described above.

[3] = tested on: Gas6+/+ platelets; test: Platelet ATP release (dense granule secretion), Lumi-aggregometer, Gas6+/+ platelets; format: cell-based, mice; set-up: unit not given here; conditions: mean±SEM of three experiments
Procedure: as §3

[4] = tested on: Platelets from Gas6+/+ mice; test: Platelet aggregation (turbidimetric, Chronolog aggregometer), Gas6+/+ platelets; format: cell-based; conditions: for platelet aggregation in response to PMA, A23187 or thrombin: FIG. 2, thrombin with washed platelets; for platelet aggregation in response to agonist (dose dependence): platelet-rich plasma, FIG. 1a-j
Procedure: as §1, §2

[5] = agonist 8 μM, platelet-rich plasma
[6] = agonist 20 μM, platelet-rich plasma
[7] = agonist 50 μM, platelet-rich plasma
[8] = agonist 100 μM, platelet-rich plasma
[9] = agonist 10 μg/ml, platelet-rich plasma
[10] = agonist 1 U/ml, washed platelets

Row | Compound | platelet aggregation in response to PMA, A23187 or thrombin [1] | platelet aggregation in response to PMA, A23187 or thrombin [4] | irreversible platelet aggregation at higher agonist concentrations [1] | irreversible platelet aggregation at low agonist concentrations [1] | platelet aggregation in response to agonist (dose dependence) [4] | ATP release [2, 8] | ATP release [3, 8] | other results
1 | CNc1ccc2oc(C[C@H]3O[C@@]4(CC[C@H]3C)O[C@H]([C@H](C)C(=O)c3ccc[nH]3)[C@H](C)C[C@H]4C)nc2c1C(=O)O [A23187] | aggregated normally | aggregated normally | – | – | – | – | – | ATP release [2, 5]: 7.3 ± 3.0; ATP release [3, 5]: 9.2 ± 3.1
2 | Nc1ncnc2c1ncn2[C@@H]1O[C@H](COP(=O)(O)OP(=O)(O)O)[C@@H](O)[C@H]1O [ADP, adenosine 5′-diphosphate] | – | – | induced irreversible aggregation | failed to irreversibly aggregate | dose-dependently aggregated | – | – | ATP release [2, 6]: 0.2 ± 0.1; ATP release [2, 7]: 1.3 ± 0.3; ATP release [3, 6]: 0.8 ± 0.1; ATP release [3, 7]: 2.6 ± 0.8
3 | CCCCCCCCCCCCCC(=O)O[C@@H]1[C@@H](C)[C@@]2(O)[C@@H](C=C(CO)C[C@]3(O)C(=O)C(C)=C[C@@H]23)[C@@H]2C(C)(C)[C@]12OC(C)=O [PMA, phorbol-12-myristyl-13-acetate] | aggregated normally | aggregated normally | – | – | – | 1.9 ± 0.6 | 2.3 ± 0.4 | –
4 | CCCCC[C@H](O)/C=C/[C@@H]1[C@@H](C/C=C\CCCC(=O)O)[C@H]2CO[C@@H]1C2 [U46619] | – | – | induced irreversible aggregation | failed to irreversibly aggregate | dose-dependently aggregated | 7.6 ± 2.3 | 8.2 ± 2.0 | ATP release ([3]; agonist 10 μM, platelet-rich plasma): 6.5 ± 1.5
5 | Collagen | – | – | induced irreversible aggregation | failed to irreversibly aggregate | dose-dependently aggregated | – | – | ATP release [2, 9]: 11 ± 0.8; ATP release ([3]; agonist 1 μg/ml, platelet-rich plasma): 1.8 ± 0.3; ATP release [3, 9]: 10 ± 1.0
6 | Thrombin | stimulated platelet aggregation comparably in both genotypes | stimulated platelet aggregation comparably in both genotypes | – | – | – | – | – | ATP release [2, 10]: 11 ± 1.2; ATP release [3, 10]: 17 ± 1.6
